Assay results reported in patent US6399764B1, “DNA molecule encoding for cellular uptake of mycobacterium tuberculosis and uses thereof” (priority 1997, dated 2002).
Entries after “also recorded” stand apart in the source; their conditions may differ.

Tested on: HeLa cells
Assay: Inhibition of rMcep1-coated fluorescent latex microsphere uptake
Type: cell-based

C=C1[C@@H](C)[C@H]2[C@H](Cc3ccccc3)NC(=O)[C@]23[C@H](OC(C)=O)/C=C/[C@@](C)(O)C(=O)[C@@H](C)C/C=C/[C@H]3[C@@H]1O [Cytochalasin D]
inhibition of association/uptake of rMcep1-coated fluorescent beads (cytochalasin D 0.1-5 mg/ml, 1 h preincubation at 37° C., FIG. 5D): blocked the association of the protein-coated beads in a dose-dependent manner
inhibition of association/uptake of rMcep1-coated fluorescent beads (cytochalasin D 0.1-5 mg/ml, 1 h preincubation at 37° C., FIG. 5D, listed as cytochalasin D): blocked uptake of the fluorescent beads, but the inhibition was not complete

CN(C)c1cccc2c(S(=O)(=O)NCCCCCN)cccc12 [MDC, Monodansylcadaverine]
inhibition of association/uptake of rMcep1-coated fluorescent beads (MDC 1-100 mm, 3 h preincubation at 37° C., FIG. 5F): partly inhibited the association
inhibition of association/uptake of rMcep1-coated fluorescent beads (MDC 1-100 mm, 3 h preincubation at 37° C., FIG. 5F, listed as Monodansylcadaverine (MDC)): partly inhibited the bead uptake

COC(=O)Nc1nc2ccc(C(=O)c3cccs3)cc2[nH]1 [Nocodazole]
inhibition of association/uptake of rMcep1-coated fluorescent beads (nocodazole up to 5 mg/ml, 1 hr preincubation at 4° C. then 5 hrs at 37° C., FIG. 5E): inhibited the association of the beads in a dose dependent fashion; also recorded: had a similar inhibitory effect at noncytotoxic concentrations
